Some results are limits rather than exact numbers.

This assay relates to HEK293T cells carrying the ATF4 luciferase reporter. Description: ATF4-Luc assay (in vitro model of VWMD). Conditions: Homo sapiens, HEK-293T, 1 μg/mL tunicamycin, 7 hours, One Glo luminescence. It counts as cell-based. Here is the method: In order to test exemplary compounds of the invention in a cellular context, a stable VWMD cell line was first constructed. The ATF4 reporter was prepared by fusing the human full-length ATF4 5′-UTR (NCBI Accession No. BC022088.2) in front of the firefly luciferase (FLuc) coding sequence lacking the initiator methionine as described in Sidrauski et al (eLife 2013). The construct was used to produce recombinant retroviruses using standard methods and the resulting viral supernatant was used to transduce HEK293T cells, which were then subsequently selected with puromycin to generate a stable cell line.
HEK293T cells carrying the ATF4 luciferase reporter were plated on polylysine coated 384-well plates (Greiner Bio-one) at 30,000 cells per well. Cells were treated the next day with 1 μg/mL tunicamycin and 200 nM of a compound of Formula (I) for 7 hours. Luminescence was measured using One Glo (Promega) as specified by the manufacturer. Cells were maintained in DMEM with L-glutamine supplemented with 10% heat-inactivated FBS (Gibco) and Antibiotic-Antimycotic solution (Gibco).
Table 2 below summarizes the EC50 data obtained using the ATF4-Luc assay for exemplary compounds of the invention.
As to `COc1ncc(OCc2nnc(C34CC(NC(=O)COc5ccc(Cl)c(F)c5)(C3)C4)o2)cc1C` [Compound 155, 2-(4-chloro-3-fluorophenoxy)-N-[3-(5-{[(6-methoxy-5-methylpyridin-3-yl)oxy]methyl}-1,3,4-oxadiazol-2-yl)bicyclo[1.1.1]pentan-1-yl]acetamide], the EC50 (in general, the midpoint of the concentration-response curve) was 250 to 1000 nM. The result for `Cc1cc(OCc2nnc(C34CC(NC(=O)COc5ccc(Cl)c(F)c5)(C3)C4)o2)cnc1C#N` [Compound 156, 2-(4-chloro-3-fluorophenoxy)-N-[3-(5-{[(6-cyano-5-methylpyridin-3-yl)oxy]methyl}-1,3,4-oxadiazol-2-yl)bicyclo[1.1.1]pentan-1-yl]acetamide] reads 1000 to 2000 nM; that for `N#Cc1ccc(OCc2nnc(C34CC(NC(=O)COc5ccc(Cl)c(F)c5)(C3)C4)o2)cn1` [Compound 157, 2-(4-chloro-3-fluorophenoxy)-N-[3-(5-{[(6-cyanopyridin-3-yl)oxy]methyl}-1,3,4-oxadiazol-2-yl)bicyclo[1.1.1]pentan-1-yl]acetamide], 250 to 1000 nM; that for `O=C(COc1ccc(Cl)cc1)NC12CC(c3nc(COc4ccc(Cl)c(Cl)c4)no3)(C1)C2` [Compound 158, 2-(4-chlorophenoxy)-N-(3-{3-[(3,4-dichlorophenoxy)methyl]-1,2,4-oxadiazol-5-yl}bicyclo[1.1.1]pentan-1-yl)acetamide], below 50 nM. Then `O=C(COc1ccc(Cl)c(F)c1)NC12CC(c3nc(COc4cncc(C(F)(F)F)c4)no3)(C1)C2` [Compound 159, 2-(4-chloro-3-fluorophenoxy)-N-{3-[3-({[5-(trifluoromethyl)pyridin-3-yl]oxy}methyl)-1,2,4-oxadiazol-5-yl]bicyclo[1.1.1]pentan-1-yl}acetamide], with 50 to 250 nM; and `O=C(COc1ccc(Cl)c(F)c1)NC12CC(c3nc(COc4ccnc(C(F)(F)F)c4)no3)(C1)C2` [Compound 160, 2-(4-chloro-3-fluorophenoxy)-N-{3-[3-({[2-(trifluoromethyl)pyridin-4-yl]oxy}methyl)-1,2,4-oxadiazol-5-yl]bicyclo[1.1.1]pentan-1-yl}acetamide], with 50 to 250 nM. The result for `O=C(COc1ccc(Cl)c(F)c1)NC12CC(c3nc(COc4ccc(C(F)(F)F)nc4)no3)(C1)C2` [Compound 161, 2-(4-chloro-3-fluorophenoxy)-N-{3-[3-({[6-(trifluoromethyl)pyridin-3-yl]oxy}methyl)-1,2,4-oxadiazol-5-yl]bicyclo[1.1.1]pentan-1-yl}acetamide] reads 50 to 250 nM; that for `O=C(COc1ccc(Cl)c(F)c1)NC12CC(c3nc(COc4cnc(C(F)(F)F)c(Cl)c4)no3)(C1)C2` [Compound 162, 2-(4-chloro-3-fluorophenoxy)-N-{3-[3-({[5-chloro-6-(trifluoromethyl)pyridin-3-yl]oxy}methyl)-1,2,4-oxadiazol-5-yl]bicyclo[1.1.1]pentan-1-yl}acetamide], 50 to 250 nM; that for `O=C(COc1ccc(Cl)c(F)c1)NC12CC(c3nc(COc4ccc(C5CC5)nc4)no3)(C1)C2` [Compound 163, 2-(4-chloro-3-fluorophenoxy)-N-[3-(3-{[(6-cyclopropylpyridin-3-yl)oxy]methyl}-1,2,4-oxadiazol-5-yl)bicyclo[1.1.1]pentan-1-yl]acetamide], 250 to 1000 nM. In the case of `COCc1nnc([C@]23CC[C@](NC(=O)COc4ccc(Cl)c(F)c4)(CC2)CC3=O)o1` [Compound 164, 2-(4-chloro-3-fluorophenoxy)-N-{4-[5-(methoxymethyl)-1,3,4-oxadiazol-2-yl]-3-oxobicyclo[2.2.2]octan-1-yl}acetamide], the EC50 was 250 to 1000 nM. The result for `COCc1nnc(C23CCC(NC(=O)COc4ccc(Cl)c(F)c4)(CC2)CC3O)o1` (stereo not shown) [Compound 165, 2-(4-chloro-3-fluorophenoxy)-N-{3-hydroxy-4-[5-(methoxymethyl)-1,3,4-oxadiazol-2-yl]bicyclo[2.2.2]octan-1-yl}acetamide] reads 250 to 1000 nM; that for `O=C(COc1ccc(Cl)c(F)c1)NC12CCC(c3nc(COc4ccc(C(F)(F)F)nc4)no3)(CC1)C(O)C2` (stereo not shown) [Compound 166, 2-(4-chloro-3-fluorophenoxy)-N-{3-hydroxy-4-[3-({[6-(trifluoromethyl)pyridin-3-yl]oxy}methyl)-1,2,4-oxadiazol-5-yl]bicyclo[2.2.2]octan-1-yl}acetamide], 250 to 1000 nM. Then `O=C(COc1ccc(Cl)c(F)c1)NC12CCC(c3nc(COc4ccnc(C(F)(F)F)c4)no3)(CC1)C(O)C2` (stereo not shown) [Compound 167, 2-(4-chloro-3-fluorophenoxy)-N-{3-hydroxy-4-[3-({[2-(trifluoromethyl)pyridin-4-yl]oxy}methyl)-1,2,4-oxadiazol-5-yl]bicyclo[2.2.2]octan-1-yl}acetamide], with 50 to 250 nM; and `O=C(COc1ccc(Cl)c(F)c1)NC12CC(c3nc(COc4ccc(Cl)c(F)c4)c[nH]3)(C1)C2` [Compound 168, 2-(4-chloro-3-fluorophenoxy)-N-(3-{4-[(4-chloro-3-fluorophenoxy)methyl]-1H-imidazol-2-yl}bicyclo[1.1.1]pentan-1-yl)acetamide], with below 50 nM; and `O=C(COc1ccc(Cl)c(F)c1)NC12CC(c3nc(COc4ccc(C(F)(F)F)nc4)c[nH]3)(C1)C2` [Compound 169, 2-(4-chloro-3-fluorophenoxy)-N-{3-[4-({[6-(trifluoromethyl)pyridin-3-yl]oxy}methyl)-1H-imidazol-2-yl]bicyclo[1.1.1]pentan-1-yl}acetamide], with above 2000 nM. The result for `O=C(COc1ccc(Cl)c(F)c1)NC12CCC(c3nnc(Oc4ccc(Cl)c(F)c4)o3)(CC1)C(O)C2` (stereo not shown) [Compound 170, 2-(4-chloro-3-fluorophenoxy)-N-{4-[5-(4-chloro-3-fluorophenoxy)-1,3,4-oxadiazol-2-yl]-3-hydroxybicyclo[2.2.2]octan-1-yl}acetamide] reads below 50 nM.
